Measured values reported in patent US20080163390A1, “METHODS AND COMPOSITIONS FOR PROVIDING SA-INDEPENDENT PATHOGEN RESISTANCE IN PLANTS” (UNIVERSITY OF KENTUCKY RESEARCH FOUNDATION, priority 2007, published 2008).

Assays:
[1] = system: Turnip Crinkle Virus (TCV); assay: TCV resistance after exogenous application of SA or glycerol; assay type: in vivo, Arabidopsis; details: for resistance to TCV (percentage of resistant plants): inoculated 48 h post-treatment, analyzed 3 weeks post-inoculation
Source text: (§1) (A) PR-1 gene expression and 18:1 content in water (W)- and glycerol (G)-treated plants. Ethidium bromide staining of rRNA was used as a loading control. The 18:1 levels are a mean of six independent replicates. (B) RT-PCR analyses showing expression of HRT and SSI4 genes in water- and glycerol-treated plants shown in A. The level of β-tubulin was used as an internal control to normalize the amount of cDNA template. (C) Visible HR formation in water (W)- and glycerol (G)-treated HRT sid2, HRT pad4 and HRT act1 plants at 3 dpi. (D) Percentage TCV resistant plants obtained after exogenous application of water, SA or glycerol. Wild type (HRT or hrt), HRT sid2, HRT pad4 and HRT act1 plants were inoculated 48 h post-treatment and resistance was analyzed 3-weeks post-inoculation. The number of plants tested are indicated above each bar. Asterisk indicates 100% susceptibility. (E) Systemic spread of TCV to uninoculated tissue in TCV-inoculated plants. RNA was extracted from the uninoculated tissues at 18 dpi and analyzed for the presence of the viral transcripts (TCV-U). Ethidium bromide staining of rRNA was used as a loading control. (F) Typical morphological phenotypes of TCV-inoculated plants that were sprayed either with water (W) or glycerol (G) prior to inoculation. Plants were photographed at 18 dpi.
(§2) Pathogen inoculations. Transcripts synthesized in vitro from a cloned cDNA of TCV using T7 RNA polymerase were used for viral infections. For inoculations, the viral transcript was suspended at a concentration of 0.05 μg/μl in inoculation buffer, and the inoculation was performed. After viral inoculations, the plants were transferred to a Conviron MTR30 reach-in chamber maintained at 22° C., 65% relative humidity and 14 hour photoperiod. Inoculations with Pseudomonas syringae were conducted.
(§3) SA and glycerol treatments. SA and glycerol treatments were carried out by spraying 500 μM and 50 mM solutions, respectively, prepared in sterile water.

[2] = system: Turnip Crinkle Virus (TCV); details: exogenous SA prior to dark-treatment of Di-17 plants; cited from earlier work
PR-1 = PR-1 gene expression (northern analysis) in glycerol-treated plants; assay type: in vivo, Arabidopsis; details: exogenous glycerol
Source text: as §1, with “Asterisk indicates 100% susceptibility. (E) Systemic spread of TCV to uninoculated tissue in TCV-inoculated plants.” left out, “Ethidium bromide staining of rRNA was used as a loading control. (F) Typical morphological phenotypes of TCV-inoculated plants that were sprayed either with water (W) or glycerol (G) prior to inoculation. Plants were photographed at 18 dpi.” left out
(§4) RNA extraction, RT-PCR and northern analyses. […] RNA quality and concentration were determined by gel electrophoresis and determination of A260. […] Two-to-three independent RNA preparations were used for RT-PCR and each of these were analyzed at least twice by RT-PCR. […] The number of amplification cycles was reduced to 22-25 in order to evaluate and quantify any differences among transcript levels before they reached saturation.

18:1 content = assay: Fatty acid analysis of leaf 18:1 content (gas chromatography); assay type: in vivo, Arabidopsis
Source text: FIG. 6A-B depicts an abbreviated scheme for lipid biosynthesis and in plant oleic acid levels after 18:1 infiltrations. (A) De novo fatty acid (FA) synthesis occurs exclusively in the plastids of all plant cells and leads to the synthesis of palmitic acid (16:0)-acyl carrier protein (ACP) and oleic acid (18:1)-ACP. These FAs enter glycerolipid synthesis either via the prokaryotic pathway in the inner envelope of chloroplasts or are exported out of plastids as CoA thioesters to enter the eukaryotic glycerolipid synthesis pathway. Symbols for various components are: CoA, coenzyme A; Lyso-PA, acyl-G3P; PA, phosphatidic acid; PG, phosphatidylglycerol; MGDG, monogalactosyldiacylglycerol; DGDG, digalactosyldiacylglycerol; SL, sulfolipid; DAG, diacylglycerol; DHAP, dihydroxyacetone phosphate. (B) In planta oleic acid levels after 18:1 infiltrations. The HRT ssi2 sid2 leaves were infiltrated with water or 1 mM oleic acid and the fatty acid levels were determined 24 h post treatment from treated and untreated leaves. The 18:1 levels from the untreated wild type plant (HRT) were used as a control.
Fatty acid analysis and oleic acid infiltration. Fatty acid analysis was carried out using gas chromatorgraphy. Oleic acid (Sigma) was dissolved in water and injected into leaves using a needle-less syringe. […]

HRT = HRT transcript levels (RT-PCR) in glycerol-treated plants; assay type: in vivo, Arabidopsis; details: exogenous glycerol
Source text: as §1, with “Asterisk indicates 100% susceptibility. (E) Systemic spread of TCV to uninoculated tissue in TCV-inoculated plants.” left out, “Ethidium bromide staining of rRNA was used as a loading control. (F) Typical morphological phenotypes of TCV-inoculated plants that were sprayed either with water (W) or glycerol (G) prior to inoculation. Plants were photographed at 18 dpi.” left out
as §4

SA levels = SA levels after glycerol application; assay type: in vivo, Arabidopsis; details: dependent on functional SID2 protein
Procedure: as §3
Exogenous application of glycerol confers resistance to TCV in an SA-independent but ACT1-dependent manner. Additional evidence supporting a role for 18:1 in regulating HRT gene expression was obtained by glycerol treatment of several genotypes. […] This is because the act1 plants are blocked in the step leading to the acylation of glycerol-3-phosphate with 18:1. […] Since the upregulation of HRT abolishes visible HR to TCV, the development of HR in various glycerol-treated plants was monitored. […] Thus, although the SA-mediated induction of HRT is dependent on PAD4, 18:1-mediated induction of HRT is independent of PAD4.

[3] = system: Turnip Crinkle Virus (TCV); assay: Visible HR formation to TCV in glycerol-treated plants; assay type: in vivo, Arabidopsis; details: glycerol-treated wild-type, HRT sid2 and HRT pad4 plants; 3 dpi
Source text: as §1
Pathogen inoculations. […]

[4] = system: Turnip Crinkle Virus (TCV); assay: TCV replication and systemic spread after 18:1 infiltration of leaves; assay type: in vivo, Arabidopsis
Source text: (A) RT-PCR analyses showing basal level expression of HRT in HRT ssi2 act1 and HRT ssi2 gly1 plants. The level of β-tubulin was used as an internal control to normalize the amount of cDNA template. The 18:1 levels are a mean of six independent replicates. (B) Systemic spread of TCV to uninoculated tissue in TCV-inoculated plants. RNA was extracted from the uninoculated tissues at 18 dpi and analyzed for the presence of the viral transcripts (TCV-U). Ethidium bromide staining of rRNA was used as a loading control. (C) Typical morphological phenotypes of mock-and TCV-inoculated HRT ssi2 act1 and HRT ssi2 gly1 plants. […] Plants were photographed at 8 dpi. (D) Effect of 18:1 infiltrations on viral replication in the inoculated leaf. Oleic acid (O, 1 mM) or water (W) was injected 24 h before or after (last two lanes) TCV inoculation and the samples were harvested 3 days post inoculation (dpi).
as §2
Fatty acid analysis and oleic acid infiltration. Fatty acid analysis was carried out using gas chromatorgraphy. Oleic acid (Sigma) was dissolved in water and injected into leaves using a needle-less syringe. To determine the 18:1 concentration required to elevate the leaf 18:1 content in ssi2 plants to wild-type levels, 50 μm to 10 mM were injected into ssi2 leaves followed by fatty acid profiling. A concentration of 500 μm to 1 mM was considered optimal, with similar results being obtained upon injection of either of these concentrations.
RNA extraction, RT-PCR and northern analyses. Small-scale extraction of RNA from one or two leaves was performed in the TRIzol reagent (Invitrogen, Gaihersburg, Md.) following the manufacturer's instructions. RNA quality and concentration were determined by gel electrophoresis and determination of A260. Northern blot analysis and synthesis of random primed probes for PR-1 were carried out. Reverse transcription (RT) and first strand cDNA synthesis was carried out using Superscript II (Invitrogen). Two-to-three independent RNA preparations were used for RT-PCR and each of these were analyzed at least twice by RT-PCR. The RT-PCR was carried out for 35 cycles in order to determine absolute levels of transcripts. The number of amplification cycles was reduced to 22-25 in order to evaluate and quantify any differences among transcript levels before they reached saturation. […]

| Compound | resistance to TCV (percentage of resistant plants) ([1]; HRT act1 plants) | resistance to TCV (percentage of resistant plants) ([1]; HRT pad4 plants) | dark-triggered susceptibility to TCV [2] | PR-1 gene expression (PR-1; HRT sid2 plants) | PR-1 gene expression (PR-1; wild-type and HRT pad4 plants) | 18:1 content (18:1 content; exogenous glycerol (50 mM spray), wild-type, HRT sid2 and HRT pad4 plants) | HRT transcript levels (HRT; HRT act1 plants) | HRT transcript levels (HRT; wild-type, HRT sid2 and HRT pad4 plants) | resistance to TCV (percentage of resistant plants) ([1]; Col-0 (hrt) plants) | more TCV-resistant plants in comparison to SA pretreatment ([1]; HRT sid2 plants, glycerol vs SA pretreatment) [%] | resistance to TCV (percentage of resistant plants) ([1]; HRT sid2 plants) | SA levels (SA levels) | visible HR to TCV [3] | 18:1 levels after exogenous application of 18:1 (18:1 content; HRT ssi2 sid2, site of infiltration vs untreated leaves, 24 h post treatment) | TCV replication in inoculated leaf ([4]; 18:1 infiltrated 24 h after TCV inoculation) | increase in amount of TCV transcript in inoculated leaf ([4]; HRT ssi2 sid2 leaves, 18:1 infiltrated before TCV inoculation) | systemic spread of the virus ([4]; HRT ssi2 sid2 plants, 18:1 injections) | TCV replication (TCV transcript) in the inoculated leaves ([4]; wild-type Di-17 or Col-0 leaves, 18:1 (1 mM) vs water injected 24 h before TCV inoculation, 3 dpi) |
| --- | --- | --- | --- | --- | --- | --- | --- | --- | --- | --- | --- | --- | --- | --- | --- | --- | --- | --- |
| O=C(O)c1ccccc1O [SA, Salicylic acid, reference compound] | substantial increase | only a marginal increase | prevents dark-triggered susceptibility |  |  |  |  |  |  |  |  |  |  |  |  |  |  |  |
| OCC(O)CO [glycerol] | not in HRT act1 or Col-0 plants | significantly enhanced resistance |  | failed to induce PR-1 gene expression | upregulation of PR-1 gene expression | lowered 18:1 content | not in HRT act1 | induced HRT transcript levels | not in HRT act1 or Col-0 plants | ~30 | enhanced resistance to TCV | induced high levels of SA | developed no visible HR |  |  |  |  |  |
| CCCCCCCC/C=C\CCCCCCCC(=O)O [18:1, oleic acid] |  |  |  |  |  |  |  |  |  |  |  |  |  | only normalized 18:1 levels locally | remained unaffected | 6-8 fold | did not allow systemic spread of the virus | did not appear to alter TCV replication |
